In article doi:10.1101/2023.11.24.568596v1 (biorxiv, 2023):

Tests used:
Settings in all cases: binder
BRAF = BRAF (Homo sapiens, UniProt P15056)
CDKL1 = CDKL1 (Homo sapiens, UniProt Q00532)
BMX = biological target: T1, BMX (Homo sapiens, UniProt P51813)
T1 sequence (P51813 1-675): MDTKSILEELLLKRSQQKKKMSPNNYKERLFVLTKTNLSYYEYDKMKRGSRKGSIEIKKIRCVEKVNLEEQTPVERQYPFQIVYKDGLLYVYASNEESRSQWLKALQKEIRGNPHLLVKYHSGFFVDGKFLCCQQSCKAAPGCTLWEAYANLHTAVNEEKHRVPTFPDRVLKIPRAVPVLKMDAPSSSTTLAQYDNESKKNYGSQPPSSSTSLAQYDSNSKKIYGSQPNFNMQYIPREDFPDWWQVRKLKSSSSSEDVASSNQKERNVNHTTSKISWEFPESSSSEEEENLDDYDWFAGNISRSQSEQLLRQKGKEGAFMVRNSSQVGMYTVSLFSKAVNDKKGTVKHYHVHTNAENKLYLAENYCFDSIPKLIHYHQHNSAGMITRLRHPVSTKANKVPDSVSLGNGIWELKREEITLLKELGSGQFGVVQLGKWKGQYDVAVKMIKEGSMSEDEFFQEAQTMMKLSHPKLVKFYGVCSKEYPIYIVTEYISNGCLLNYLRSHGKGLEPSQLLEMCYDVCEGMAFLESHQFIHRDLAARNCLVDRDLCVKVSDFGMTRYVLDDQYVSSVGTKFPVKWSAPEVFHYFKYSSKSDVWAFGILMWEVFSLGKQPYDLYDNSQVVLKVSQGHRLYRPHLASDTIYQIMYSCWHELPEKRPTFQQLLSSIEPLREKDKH

EphB1 = biological target: T2, EphB1 (Homo sapiens, UniProt P54762)
T2 sequence (P54762 1-984): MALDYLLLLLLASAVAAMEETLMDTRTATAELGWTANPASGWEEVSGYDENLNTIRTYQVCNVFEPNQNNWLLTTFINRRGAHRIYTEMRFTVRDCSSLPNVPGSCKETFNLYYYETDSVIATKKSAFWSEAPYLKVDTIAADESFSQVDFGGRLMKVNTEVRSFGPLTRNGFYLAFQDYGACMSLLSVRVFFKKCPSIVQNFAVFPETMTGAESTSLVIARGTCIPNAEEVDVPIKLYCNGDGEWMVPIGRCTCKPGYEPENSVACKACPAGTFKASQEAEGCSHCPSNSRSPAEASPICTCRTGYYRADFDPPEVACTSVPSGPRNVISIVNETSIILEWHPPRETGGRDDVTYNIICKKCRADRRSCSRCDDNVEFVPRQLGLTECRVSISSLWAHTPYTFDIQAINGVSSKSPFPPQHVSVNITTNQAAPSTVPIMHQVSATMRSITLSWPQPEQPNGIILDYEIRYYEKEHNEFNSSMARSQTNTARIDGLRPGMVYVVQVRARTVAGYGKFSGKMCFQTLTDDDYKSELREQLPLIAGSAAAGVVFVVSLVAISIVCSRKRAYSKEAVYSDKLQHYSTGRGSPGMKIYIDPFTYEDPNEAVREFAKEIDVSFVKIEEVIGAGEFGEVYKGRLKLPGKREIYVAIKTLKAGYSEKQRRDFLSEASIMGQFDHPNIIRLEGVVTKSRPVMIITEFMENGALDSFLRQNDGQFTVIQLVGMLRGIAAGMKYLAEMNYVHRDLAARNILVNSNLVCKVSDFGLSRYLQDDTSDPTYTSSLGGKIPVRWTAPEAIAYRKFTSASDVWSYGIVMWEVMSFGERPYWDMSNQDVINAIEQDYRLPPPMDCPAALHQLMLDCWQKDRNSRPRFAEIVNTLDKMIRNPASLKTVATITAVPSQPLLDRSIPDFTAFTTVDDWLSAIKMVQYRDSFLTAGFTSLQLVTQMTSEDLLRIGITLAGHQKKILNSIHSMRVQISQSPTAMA

ULK3 = biological target: T3, ULK3 (Homo sapiens, UniProt Q6PHR2)
T3 sequence (Q6PHR2 1-472): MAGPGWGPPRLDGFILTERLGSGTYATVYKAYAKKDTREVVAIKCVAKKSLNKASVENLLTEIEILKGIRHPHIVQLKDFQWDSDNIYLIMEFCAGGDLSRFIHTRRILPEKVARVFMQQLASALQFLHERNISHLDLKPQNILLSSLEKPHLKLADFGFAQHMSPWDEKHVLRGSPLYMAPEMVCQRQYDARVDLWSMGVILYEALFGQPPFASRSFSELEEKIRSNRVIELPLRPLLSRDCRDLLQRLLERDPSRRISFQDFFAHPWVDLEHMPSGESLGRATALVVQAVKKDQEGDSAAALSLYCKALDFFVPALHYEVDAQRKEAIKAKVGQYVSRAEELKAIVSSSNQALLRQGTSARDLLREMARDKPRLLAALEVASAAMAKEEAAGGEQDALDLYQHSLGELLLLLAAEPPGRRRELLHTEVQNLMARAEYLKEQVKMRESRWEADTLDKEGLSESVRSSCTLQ

FECH = biological target: T4, FECH (Homo sapiens, UniProt P22830)
T4 sequence (P22830 1-423): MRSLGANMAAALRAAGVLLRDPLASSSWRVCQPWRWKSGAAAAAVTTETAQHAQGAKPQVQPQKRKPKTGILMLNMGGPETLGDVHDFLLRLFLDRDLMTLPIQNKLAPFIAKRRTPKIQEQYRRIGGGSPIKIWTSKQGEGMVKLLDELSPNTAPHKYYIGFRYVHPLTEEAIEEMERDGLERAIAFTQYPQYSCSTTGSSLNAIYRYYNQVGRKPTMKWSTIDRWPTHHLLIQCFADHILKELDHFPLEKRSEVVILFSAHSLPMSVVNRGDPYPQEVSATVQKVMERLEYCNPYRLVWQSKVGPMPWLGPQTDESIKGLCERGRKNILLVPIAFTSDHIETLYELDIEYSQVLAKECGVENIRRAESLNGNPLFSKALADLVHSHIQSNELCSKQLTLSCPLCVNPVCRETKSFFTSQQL

Sequence of BRAF (P15056 whole entry): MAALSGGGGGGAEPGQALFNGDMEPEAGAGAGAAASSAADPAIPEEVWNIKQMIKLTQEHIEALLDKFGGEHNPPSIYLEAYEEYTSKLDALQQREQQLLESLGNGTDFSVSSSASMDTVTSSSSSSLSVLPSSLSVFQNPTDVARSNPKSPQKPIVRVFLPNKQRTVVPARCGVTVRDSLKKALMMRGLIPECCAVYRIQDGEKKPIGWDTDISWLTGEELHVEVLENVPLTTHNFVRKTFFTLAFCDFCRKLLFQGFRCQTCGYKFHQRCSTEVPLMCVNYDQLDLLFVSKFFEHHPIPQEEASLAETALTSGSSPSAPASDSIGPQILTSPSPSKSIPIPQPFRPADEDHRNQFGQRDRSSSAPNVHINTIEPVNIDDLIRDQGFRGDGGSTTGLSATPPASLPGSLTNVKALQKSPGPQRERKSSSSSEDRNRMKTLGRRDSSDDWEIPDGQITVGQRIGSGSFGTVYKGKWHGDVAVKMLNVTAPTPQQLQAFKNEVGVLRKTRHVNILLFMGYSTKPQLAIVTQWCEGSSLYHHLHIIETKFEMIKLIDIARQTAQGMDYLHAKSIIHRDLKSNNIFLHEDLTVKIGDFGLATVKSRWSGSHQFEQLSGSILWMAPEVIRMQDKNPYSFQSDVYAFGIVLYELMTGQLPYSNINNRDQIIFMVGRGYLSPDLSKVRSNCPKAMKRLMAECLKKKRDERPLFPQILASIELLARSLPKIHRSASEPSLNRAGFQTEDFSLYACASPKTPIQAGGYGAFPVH
Sequence of CDKL1 (Q00532 whole entry): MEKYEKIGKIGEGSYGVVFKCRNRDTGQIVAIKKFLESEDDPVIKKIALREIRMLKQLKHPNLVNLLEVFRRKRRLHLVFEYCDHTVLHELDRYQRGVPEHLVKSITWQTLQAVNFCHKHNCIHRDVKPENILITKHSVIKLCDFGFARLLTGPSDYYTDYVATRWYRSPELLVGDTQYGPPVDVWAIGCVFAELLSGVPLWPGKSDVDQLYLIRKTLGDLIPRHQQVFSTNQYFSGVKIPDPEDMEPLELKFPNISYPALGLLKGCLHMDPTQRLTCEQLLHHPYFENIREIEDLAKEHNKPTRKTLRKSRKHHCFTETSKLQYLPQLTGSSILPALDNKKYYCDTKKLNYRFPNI

## Cc1cccc(-c2ccc(-c3cc4cnc(Nc5ccc(F)c(CO)c5)nc4n(CCCCN)c3=O)c(Cl)c2)n1 [compound 33, 8-(4-Aminobutyl)-6-(2-chloro-4-(6-methylpyridin-2-yl)phenyl)-2-((4-fluoro-3-(hydroxymethyl)phenyl)amino)pyrido[2,3-d]pyrimidin-7(8H)-one]
BRAF
  dTm 33: 6.3 °C
CDKL1
  dTm 33: 2.0 °C
BMX
  dTm 33: 7.1 °C
EphB1
  dTm 33: 6.5 °C
ULK3
  dTm 33: 13.9 °C
FECH
  dTm 33: -2.9 °C

## COc1ccc(O)c(Nc2ncc3cc(-c4ccc(-c5cccc(C)n5)cc4Cl)c(=O)n(CCCCN)c3n2)c1 [compound 34, 8-(4-Aminobutyl)-6-(2-chloro-4-(6-methylpyridin-2-yl)phenyl)-2-((2-hydroxy-5-methoxy-phenyl)amino)pyrido[2,3-d]pyrimidin-7(8H)-one]
BRAF
  dTm 34: 1.1 °C
CDKL1
  dTm 34: 1.5 °C
BMX
  dTm 34: 4.1 °C
EphB1
  dTm 34: 5.2 °C
ULK3
  dTm 34: 8.3 °C
FECH
  dTm 34: 3.2 °C

## COc1cc(N2CCOCC2)ccc1Nc1ncc2cc(-c3ccc(-c4cccc(C)n4)cc3Cl)c(=O)n(CCCCN)c2n1 [compound 35, 8-(4-Aminobutyl)-6-(2-chloro-4-(6-methylpyridin-2-yl)phenyl)-2-((2-methoxy-4-morpholino-phenyl)amino)pyrido[2,3-d]pyrimidin-7(8H)-one]
BRAF
  dTm 35: 0.8 °C
CDKL1
  dTm 35: 0.3 °C
BMX
  dTm 35: 4.4 °C
EphB1
  dTm 35: 6.0 °C
ULK3
  dTm 35: 12.7 °C
FECH
  dTm 35: 7.0 °C

## COc1cc(N2CCN(C)CC2)ccc1Nc1ncc2cc(-c3ccc(-c4cccc(C)n4)cc3Cl)c(=O)n(CCCCN)c2n1 [compound 36, 8-(4-Aminobutyl)-6-(2-chloro-4-(6-methylpyridin-2-yl)phenyl)-2-((2-methoxy-4-(4-methylpiperazin-1-yl)phenyl)amino)pyrido[2,3-d]pyrimidin-7(8H)-one]
BRAF
  dTm 36: 0.8 °C
CDKL1
  dTm 36: 0.8 °C
BMX
  dTm 36: 3.3 °C
EphB1
  dTm 36: 5.5 °C
ULK3
  dTm 36: 8.9 °C
FECH
  dTm 36: 3.0 °C
